From patent US9133219B2, “Bicyclic antibiotics” (Basilea Pharmaceutica AG, priority 2009, dated 2015)
In brackets after ≈: the same amount, converted by molar mass. Read-outs that look alike come from different tables or passages of the source.

Key:
Assay type in all cases: cell-based
[1] = test system: Staphylococcus aureus and/or Staphylococcus epidermidis; test: MIC summary statement, staphylococci; details: generally, for Staphylococcus aureus and/or Staphylococcus epidermidis
Procedure: (§1) Anti-Microbial Activity Assay.
(§2) The antibacterial activity of compounds is determined by the minimal inhibitory concentration (MIC) method. MICs for all bacteria except pneumococci and Haemophilus influenzae are obtained by broth microdilution with cation-adjusted Mueller-Hinton broth (CAMHB; BBL), according to CLSI guidelines (National Committee for Clinical Laboratory Standards. 2003. Methods for dilution antimicrobial susceptibility tests for bacteria that grow aerobically, 5th ed.; approved standard M7-A6. National Committee for Clinical Laboratory Standards, Wayne, Pa.), with the following modifications: (i) for pneumococci CAMHB is supplemented with 5% (^v/v) horse serum; (ii) for Haemophilus influenzae CAMHB is supplemented with 5% (^v/v) Fildes enrichment (BBL) (Pankuch, G. A., Hoellman, D. B., Lin, G., Bajaksouzian, S., Jacobs, M. R., and Appelbaum, P. C. 1998. Activity of HMR 3647 compared to those of five agents against Haemophilus influenzae and Moraxella catarrhalis by MIC determination and time-kill assay. Antimicrob. Agents Chemother. 42:3032-3034). Microtiter plates are incubated at 35° C. in ambient air for 20 to 24 h, then inspected using an illuminated microtiter plate reader fitted with a magnifying mirror (MIC 2000; Cooke Laboratory Products, Alexandria, Va.). Compounds of the present invention are tested against several bacteria strains comprising some Acinetobacter baumannii, Enterococcus faecalis, Enterococcus faecitan, Escherichia coli, Haemophilus influenzae, Klebsiella pneumoniae, Pseudomonas aeruginosa, Staphylococcus aureus, Staphylococcus epidermidis and Streptococcus pneumoniae.

[2] = test system: Streptococcus pneumoniae; test: Anti-microbial activity assay, MIC by broth microdilution (CAMHB with 5% horse serum); details: for MIC: Streptococcus pneumoniae
Procedure: as §1, §2

[3] = test system: Escherichia coli; test: Anti-microbial activity assay, MIC by broth microdilution; details: for MIC: Escherichia coli
Procedure: as §1, §2

[4] = test system: Staphylococcus epidermidis; test: as above; details: strain ATCC14990; for MIC: Staphylococcus epidermidis
Procedure: as §1, §2

[5] = test system: Staphylococcus aureus; test: as above; details: for MIC: Staphylococcus aureus
Procedure: as §1, §2

[6] = strain ATCC49619, CAMHB with 5% horse serum, read-out: MIC Streptococcus pneumoniae ATCC49619
[7] = strain UB1005, read-out: MIC Escherichia coli UB1005
[8] = strain ATCC29213, read-out: MIC Staphylococcus aureus ATCC29213
[9] = strain ATCC49619, CAMHB with 5% horse serum
[10] = S. pneumoniae ATCC49619, comparison of C4 and C3 position of the methoxyquinoline, same side chain, read-out: MIC
[11] = E. coli UB1005, comparison of C4 and C3 position of the methoxyquinoline, same side chain, read-out: MIC
[12] = S. aureus ATCC29213, comparison of C4 and C3 position of the methoxyquinoline, same side chain, read-out: MIC

| SMILES | MIC [2, 6] [mg/L] | MIC [3, 7] [mg/L] | MIC [4] [mg/L] | MIC [5, 8] [mg/L] | further results |
| --- | --- | --- | --- | --- | --- |
| COc1ccc2ncc(OCCN3CCC(NC(=O)c4ccc5c(c4)NC(=O)CS5)CC3)nc2c1 [Example 1, 3-oxo-3,4-dihydro-2H-benzo[1,4]thiazine-6-carboxylic acid {1-[2-(7-methoxy-quinoxalin-2-yloxy)-ethyl]-piperidin-4-yl}-amide] | 4 (≈ 8.1 µM) | 8 (≈ 16.2 µM) | ≤ 2 | ≤ 2 | MIC [1]: ≤ 2 mg/L |
| COc1ccc2ncc(OCC[C@H]3CC[C@H](NC(=O)c4ccc5c(n4)NC(=O)CO5)CC3)cc2n1 [Example 3, 3-oxo-3,4-dihydro-2H-pyrido[3,2-b][1,4]oxazine-6-carboxylic acid {trans-4-[2-(6-methoxy-[1,5]naphthyridin-3-yloxy)-ethyl]-cyclohexyl}-amide] | 16 (≈ 33.5 µM) | > 32 | ≤ 2 | ≤ 2 | MIC [1]: ≤ 2 mg/L |
| COc1ccc2ncc(OCC[C@H]3CC[C@H](NC(=O)c4ccc5c(c4)NC(=O)CS5)CC3)nc2c1 [Example 4, 3-oxo-3,4-dihydro-2H-benzo[1,4]thiazine-6-carboxylic acid {trans-4-[2-(7-methoxy-quinoxalin-2-yloxy)-ethyl]-cyclohexyl}-amide] | > 32 | > 32 | ≤ 2 | ≤ 2 | MIC [1]: ≤ 2 mg/L |
| COc1ccc2ncc(OCC[C@H]3CC[C@H](NC(=O)c4ccc5c(c4)NC(=O)CO5)CC3)cc2n1 [Example 6, 3-oxo-3,4-dihydro-2H-benzo[1,4]oxazine-6-carboxylic acid {trans-4-[2-(6-methoxy-[1,5]naphthyridin-3-yloxy)-ethyl]-cyclohexyl}-amide] | 4 (≈ 8.39 µM) | > 32 | ≤ 2 | ≤ 2 | MIC [1]: ≤ 2 mg/L |
| COc1ccc2ncc(OCCN3CCC(N(C)Cc4ccc5c(c4)OCCO5)CC3)nc2c1 [Example 10, (2,3-dihydro-benzo[1,4]dioxin-6-ylmethyl)-{1-[2-(7-methoxy-quinoxalin-2-yloxy)-ethyl]-piperidin-4-yl}-methyl-amine] | 8 (≈ 17.2 µM) | > 32 | 8 (≈ 17.2 µM) | 4 (≈ 8.61 µM) | – |
| CCC(Oc1cnc2ccc(OC)cc2n1)N1CCCC(NCc2ccc3c(c2)NC(=O)CS3)C1 (centres unmarked) [Example 11, 6-({1-[1-(7-methoxy-quinoxalin-2-yloxy)-propyl]-piperidin-3-ylamino}-methyl)-4H-benzo[1,4]thiazin-3-one] | 4 (≈ 8.1 µM) | 16 (≈ 32.4 µM) | 4 (≈ 8.1 µM) | 4 (≈ 8.1 µM) | – |
| COc1cccc2ncc(OCCN3CCC(NC(=O)c4ccc5c(c4)NC(=O)CS5)CC3)nc12 [Example 12, 3-oxo-3,4-dihydro-2H-benzo[1,4]thiazine-6-carboxylic acid {1-[2-(8-methoxy-quinoxalin-2-yloxy)-ethyl]-piperidin-4-yl}-amide] | 16 (≈ 32.4 µM) | ≥ 32 | 4 (≈ 8.1 µM) | 4 (≈ 8.1 µM) | – |
| O=C1CSc2ccc(C(=O)NC3CCN(CCOc4cnc5ccc([N+](=O)[O-])cc5n4)CC3)cc2N1 [Example 13, 3-oxo-3,4-dihydro-2H-benzo[1,4]thiazine-6-carboxylic acid {1-[2-(7-nitro-quinoxalin-2-yloxy)-ethyl]-piperidin-4-yl}-amide] | > 32 | > 32 | > 32 | 4 (≈ 7.87 µM) | – |
| COc1ccc2ncc(OCCN3CCC(NC(=O)c4ccc5c(c4)NC(=O)CS5)CC3)nc2c1 [Example 21, 3-oxo-3,4-dihydro-2H-benzo[1,4]thiazine-6-carboxylic acid {1-[2-(7-methoxy-quinoxalin-2-yloxy)-ethyl]-piperidin-4-yl}-amide] | – | – | – | – | MIC Streptococcus pneumoniae ATCC49619 [2, 9]: >32 mg/L; MIC Escherichia coli UB1005 ([3]; strain UB1005): ≧32 mg/L; MIC Staphylococcus epidermidis ATCC14990 [4]: 16 mg/L (≈ 32.4 µM); MIC Staphylococcus aureus ATCC29213 ([5]; strain ATCC29213): 8 mg/L (≈ 16.2 µM) |
| COc1ccc2ncc(OCCN3CC(NC(=O)c4ccc5c(c4)NC(=O)CS5)C3)nc2c1 [Example 22, 3-oxo-3,4-dihydro-2H-benzo[1,4]thiazine-6-carboxylic acid {1-[2-(7-methoxy-quinoxalin-2-yloxy)-ethyl]-azetidin-3-yl}-amide] | 32 (≈ 68.7 µM) | 16 (≈ 34.4 µM) | 4 (≈ 8.59 µM) | 4 (≈ 8.59 µM) | – |
| COc1ccc2ncc(OCCCN3CCC(NC(=O)c4ccc5c(c4)NC(=O)CS5)C3)nc2c1 (centres unmarked) [Example 23] | – | – | – | – | MIC Streptococcus pneumoniae ATCC49619 [2, 9]: 16 mg/L (≈ 32.4 µM); MIC Escherichia coli UB1005 ([3]; strain UB1005): 16 mg/L (≈ 32.4 µM); MIC Staphylococcus epidermidis ATCC14990 [4]: 4 mg/L (≈ 8.1 µM); MIC Staphylococcus aureus ATCC29213 ([5]; strain ATCC29213): 4 mg/L (≈ 8.1 µM) |
| COc1ccc2ncc(OCCN3CCC(CNC(=O)c4cc5c(cc4Cl)SCC(=O)N5)CC3)nc2c1 [Example 24, 7-chloro-3-oxo-3,4-dihydro-2H-benzo[1,4]thiazine-6-carboxylic acid {1-[2-(7-methoxy-quinoxalin-2-yloxy)-ethyl]-piperidin-4-ylmethyl}-amide] | 16 (≈ 29.5 µM) | 4 (≈ 7.38 µM) | 8 (≈ 14.8 µM) | 8 (≈ 14.8 µM) | – |
| COc1ccc2ncc(OCCN3CCC(N(C)Cc4ccc5c(c4)NC(=O)CS5)CC3)nc2c1 [Example 25, 6-[({1-[2-(7-methoxy-quinoxalin-2-yloxy)-ethyl]-piperidin-4-yl}-methyl-amino)-methyl]-4H-benzo[1,4]thiazin-3-one] | 16 (≈ 32.4 µM) | 8 (≈ 16.2 µM) | 16 (≈ 32.4 µM) | 8 (≈ 16.2 µM) | – |
| COc1ccc2ncc(OCCN3CCC(CNC(=O)c4cc(-c5cccs5)on4)C3)nc2c1 (centres unmarked) [Example 26, 5-thiophen-2-yl-isoxazole-3-carboxylic acid {1-[2-(7-methoxy-quinoxalin-2-yloxy)-ethyl]-pyrrolidin-3-ylmethyl}-amide] | 8 (≈ 16.7 µM) | > 32 | 16 (≈ 33.4 µM) | 4 (≈ 8.34 µM) | – |
| COc1ccc2ncc(OCCCN3CCC(CNC(=O)c4cc5c(cc4Cl)SCCN5)C3)nc2c1 (centres unmarked) [Example 27, 7-chloro-3,4-dihydro-2H-benzo[1,4]thiazine-6-carboxylic acid {1-[3-(7-methoxy-quinoxalin-2-yloxy)-propyl]-pyrrolidin-3-ylmethyl}-amide] | 32 (≈ 60.6 µM) | 16 (≈ 30.3 µM) | 32 (≈ 60.6 µM) | 8 (≈ 15.1 µM) | – |
| COc1ccc2ncc(C(=O)OC[C@H]3CC[C@H](N(C)Cc4ccc5c(c4)OCCO5)CC3)cc2c1 [Example 32, 6-methoxy-quinoline-3-carboxylic acid trans-4-[(2,3-dihydro-benzo[1,4]dioxin-6-ylmethyl)-methyl-amino]-cyclohexylmethyl ester] | 32 (≈ 67.1 µM) | > 32 | 16 (≈ 33.6 µM) | 8 (≈ 16.8 µM) | – |
| COc1ccc2ncc(C(=O)OC[C@H]3CC[C@H](NCc4ccc5c(c4)OCCO5)CC3)cc2c1 [Example 33, 6-methoxy-quinoline-3-carboxylic acid trans-4-[(2,3-dihydro-benzo[1,4]dioxin-6-ylmethyl)-amino]-cyclohexylmethyl ester] | 8 (≈ 17.3 µM) | > 32 | 8 (≈ 17.3 µM) | 4 (≈ 8.65 µM) | – |
| CCN(Cc1ccc2c(c1)OCCO2)[C@H]1CC[C@H](COC(=O)c2cnc3ccc(OC)cc3c2)CC1 [Example 34, 6-methoxy-quinoline-3-carboxylic acid trans-4-[(2,3-dihydro-benzo[1,4]dioxin-6-ylmethyl)-ethyl-amino]-cyclohexylmethyl ester] | > 32 | > 32 | > 32 | 8 (≈ 16.3 µM) | – |
| COc1ccc2ncc(SCCN3CCC(NCc4ccc5c(c4)NC(=O)CO5)CC3)nc2c1 [Example 40] | – | – | – | – | MIC Streptococcus pneumoniae ATCC49619 [2, 9]: ≦2 mg/L; MIC Escherichia coli UB1005 ([3]; strain UB1005): ≦2 mg/L; MIC Staphylococcus epidermidis ATCC14990 [4]: ≦2 mg/L; MIC Staphylococcus aureus ATCC29213 ([5]; strain ATCC29213): ≦2 mg/L |
| COc1ccc2nccc(OC[C@H]3CC[C@H](NCc4ccc5c(c4)OCCO5)CC3)c2c1 [reference compound] | – | – | – | – | MIC [2, 10]: 0.5 mg/L (≈ 1.15 µM); MIC [3, 11]: 16 mg/L (≈ 36.8 µM); MIC [5, 12]: 0.5 mg/L (≈ 1.15 µM) |
| COc1ccc2nccc(OC[C@H]3CC[C@H](NCc4ccc5c(c4)NC(=O)CO5)CC3)c2c1 [reference compound] | – | – | – | – | MIC [2, 10]: 2 mg/L (≈ 4.47 µM); MIC [3, 11]: 1 mg/L (≈ 2.23 µM); MIC [5, 12]: 1 mg/L (≈ 2.23 µM) |
| COc1ccc2ncc(OC[C@H]3CC[C@H](NCc4ccc5c(c4)OCCO5)CC3)cc2c1 [reference compound] | – | – | – | – | MIC [2, 10]: 32 mg/L (≈ 73.6 µM); MIC [3, 11]: > 32 mg/L; MIC [5, 12]: > 32 mg/L |
| COc1ccc2ncc(OC[C@H]3CC[C@H](NCc4ccc5c(c4)NC(=O)CO5)CC3)cc2c1 [reference compound] | – | – | – | – | MIC [2, 10]: 32 mg/L (≈ 71.5 µM); MIC [3, 11]: > 32 mg/L; MIC [5, 12]: > 32 mg/L |
